In patent US20130317040A1, “METHODS FOR TREATING SYSTEMIC LUPUS ERYTHEMATOSUS USING HIV PROTEASE INHIBITORS” (The Feinstein Institute of Medical Research, priority 2010, published 2013):

Tests used:
[1] = tested on: lupus anti-dsDNA monoclonal antibody, R4A; assay: Competitive ELISA, R4A binding to bound dsDNA (calf thymus DNA); set-up: species or system mouse; details: for inhibition of R4A binding, DNA: competitive ELISA, bound calf thymus DNA, at the most effective concentration of compound
Procedure: (§1) To test whether these antiviral drugs might inhibit R4A binding, competitive ELISAs, with bound DWEYS peptide, bound dsDNA, or bound C1q protein, were performed. […] Activity in these ELISAs is predictive of binding activity with naturally occurring anti-dsDNA antibodies in lupus patients.
(§2) ELISAs. […] Antigens were absorbed to microtiter plate wells (either D-DWEYS (20 μg/ml) in PBS, calf thymus DNA (100 μg/ml) in NaHCO3 (0.1M, pH 8.6) or full length complement component C1q (10-20 μg/ml) in PBS) overnight at 37° C. […] The competitive ELISA was performed as described, using R4A monoclonal antibodies (2-20 μg/ml). […] The plates were washed and alkaline phosphatase-conjugated goat anti-mouse IgG antibody was added for 1 h at 37° C.

[2] = tested on: lupus anti-dsDNA monoclonal antibody, R4A; assay: Competitive ELISA, R4A binding to bound C1q protein; set-up: species or system mouse; details: at the most effective concentration of compound
Procedure: as §1, §2

[3] = tested on: lupus anti-dsDNA monoclonal antibody, R4A; assay: Competitive ELISA, R4A binding to bound DWEYS peptide; set-up: species or system mouse; details: for inhibition of R4A binding, DWEYS: competitive ELISA, bound D-DWEYS, at the most effective concentration of compound; for inhibition of R4A binding to D-DWEYS-5 peptide on ELISAs: R4A 2 μg/ml, 1 μM, 10 μM and 100 μM, highest concentrations showed the greatest inhibition
Procedure: as §1, §2

[4] = tested on: mouse monoclonal anti-dsDNA antibody, R4A; assay: Deposition of R4A to kidney glomeruli ex vivo; type: binding; details: detected with fluorescently-labeled secondary antibody
Excerpt: Nephrotoxicity: nelfinavir was also found to suppress pathologic deposition of mouse monoclonal anti-dsDNA antibody, […], to kidney glomeruli ex vivo. […] For methodology see Bloom, O. et al., (2011), PNAS 108:10255-10259 and Zhang, J. et al., (2009), J. Autoimmun. 33:270-274.

[5] = tested on: lupus patient sera components binding to DNA (anti-dsDNA antibodies); assay: ELISA, lupus patient sera binding to DNA; set-up: species or system human; details: compound at 1, 10 and 100 micromolar; sera from lupus patients with elevated anti-dsDNA titers
Excerpt: In early tests, inhibition of lupus patient sera components binding to DNA by nelfinavir was observed (data not shown). Sera, collected from lupus patients with moderately active disease and elevated titers of anti-dsDNA antibodies, was used for an ELISA assay for binding to DNA. The addition of nelfinavir in micromolar concentrations of 1, 10 and 100 decreased DNA binding by an average of 43%.

cytochrome P-450 enzymes = details: cited from earlier work
[6] = in vivo; cited from earlier work
[7] = tested on: R4A-induced apoptosis in the central nervous system; assay: R4A-induced neurotoxicity in vivo, hippocampal injection, TUNEL staining; details: R4A pre-incubated with inhibitor 15 min at 37° C., injected into hippocampus; brain slices after 48 hours
Procedure: Neurotoxicity: protection from R4A-induced apoptosis in the central nervous system was assessed by TUNEL staining. […] R4A was pre-incubated with vehicle or HIV protease inhibitors for 15 min. at 37° C. The preparation was then stereotaxically injected into the hippocampus of test animals. After 48 hours, brain slices at the injection site were subjected to TUNEL staining. […] For methodology see Bloom, O. et al., (2011), supra, and Zhang, J. et al., (2009), supra.

[8] = R4A 5 μg/ml, compound at 25 μM and 50 μM

Row | inhibition of R4A binding, C1q assay [2] | inhibition of R4A binding, DWEYS [3] | R4A binding (deposition) to kidney glomeruli ex vivo [4] | inhibition of R4A binding to D-DWEYS-5 peptide on ELISAs [3] | inhibition of R4A binding to DWEYS peptide on ELISAs [3, 8] | SMILES | inhibition of R4A binding, DNA [1] | inhibition of R4A binding to DNA on ELISAs [1, 8] | decrease of lupus patient sera DNA binding (average) [5] | metabolizing cytochrome P-450 enzymes (cytochrome P-450 enzymes) | time until steady state of the drug is achieved [6] | protection from R4A neurotoxicity (TUNEL staining) [7]
1 | 18% | 31% |  |  |  | CC(C)(C)NCC1CC2CCCCC2CN1CC(O)C(Cc1ccccc1)NCC(CCN)NCC1Nc2ccccc2CC1O (stereo not shown) [12W, 2-((4-amino-1-(4-(3-((tert-butylamino)methyl)octahydroisoquinolin-2(1H)-yl)-3-hydroxy-1-phenylbutan-2-ylamino)butan-2-ylamino)methyl)-1,2,3,4-tetrahydroquinolin-3-ol] | 32% |  |  |  |  | 
2 | 64% | 46% | only nelfinavir decreased | improved inhibition |  | COC(=O)N[C@H](C(=O)N[C@@H](Cc1ccccc1)[C@@H](O)CN(Cc1ccc(-c2ccccn2)cc1)NC(=O)[C@@H](NC(=O)OC)C(C)(C)C)C(C)(C)C [Atazanavir, atazanavir] | 38% |  |  |  |  | 
3 | 38% | 56% | only nelfinavir decreased | improved inhibition |  | Cc1cccc(C)c1OCC(=O)N[C@@H](Cc1ccccc1)[C@@H](O)C[C@H](Cc1ccccc1)NC(=O)[C@H](C(C)C)N1CCCNC1=O [Lopinavir, lopinavir] | 32% |  |  |  |  | 
4 | 13% | 8% |  |  |  | CC(C)c1nc(CN(C)C(=O)N[C@H](C(=O)N[C@@H](Cc2ccccc2)C[C@H](O)[C@H](Cc2ccccc2)NC(=O)OCc2cncs2)C(C)C)cs1 [Ritonavir, ritonavir] | 0% |  |  |  |  | 
5 | 54% | 33% | only nelfinavir decreased | improved inhibition |  | CC(C)(C)NC(=O)[C@@H]1C[C@@H]2CCCC[C@@H]2CN1C[C@@H](O)[C@H](Cc1ccccc1)NC(=O)[C@H](CC(N)=O)NC(=O)c1ccc2ccccc2n1 [Saquinavir, saquinavir] | 31% |  |  |  |  | 
6 |  |  | decreased the R4A binding |  | Significant inhibition | Cc1c(O)cccc1C(=O)N[C@@H](CSc1ccccc1)[C@H](O)CN1C[C@H]2CCCC[C@H]2C[C@H]1C(=O)NC(C)(C)C [nelfinavir] |  | Significant inhibition | 43% | CYP3A4, CYP2C19, CYP2C9, and CYP2D6 | 6 days | block neurotoxicity

Row | SMILES | inhibition of R4A binding, C1q assay [2] | inhibition of R4A binding, DWEYS [3] | R4A binding (deposition) to kidney glomeruli ex vivo [4] | inhibition of R4A binding to D-DWEYS-5 peptide on ELISAs [3] | inhibition of R4A binding to DWEYS peptide on ELISAs [3, 8] | inhibition of R4A binding, DNA [1] | inhibition of R4A binding to DNA on ELISAs [1, 8] | decrease of lupus patient sera DNA binding (average) [5] | metabolizing cytochrome P-450 enzymes (cytochrome P-450 enzymes) | time until steady state of the drug is achieved [6] | protection from R4A neurotoxicity (TUNEL staining) [7]
7 | CC(C)CN(C[C@@H](O)[C@H](Cc1ccccc1)NC(=O)O[C@H]1CO[C@H]2OCC[C@H]21)S(=O)(=O)c1ccc(N)cc1 [Darunavir, darunavir] | 0% | 16% |  |  |  | 3% |  |  |  |  | 
